Assay results as given in patent publication US9976170B2, “Method for evaluating bacterial cell wall integrity” (UNIVERSIDAD AUTONOMA DE MADRID, priority 2011, dated 2018).
Values after ≈ are worked out from the molar mass of the structure shown. Each block holds one molecule with its values, some of them ahead of it.

What was measured:
Type in all cases: cell-based
[1] = test system: Enterococcus faecium, ampicillin- and benzylpenicillin-resistant strain; assay: MIC by microdilution and/or E-test
Text: (§1) The strains and the antibiotics used were: • Gram+ • Enterococcus faecalis.
(§2) The doses of antibiotic applied were 0, the MIC determined in the Microbiology Laboratory by means of the microdilution and/or E-test technique, and those of the cutoff points of sensitivity and resistance indicated by the Clinical and Laboratory Standards Institute (CLSI) for each strain. A dose 10 times higher than the MIC was also used.

[2] = test system: Enterococcus faecalis, ampicillin-sensitive and benzylpenicillin-resistant strain; assay: MIC by microdilution and/or E-test
Text: as §1, §2

[3] = test system: Enterococcus faecium, ampicillin- and benzylpenicillin-resistant strain; assay: technique for evaluating cell wall integrity (lysis solution, nucleoid release, fluorescence microscopy); conditions: 320 μg/mL, 60 minutes
Procedure: (§3) Different bacterial strains grown on a dish with Mueller-Hinton medium for 24 hours were subsequently exposed to a β-lactam antibiotic for 60 minutes in Mueller-Hinton liquid medium at 37° C., under stirring, and were finally processed by means of the technique for evaluating cell wall integrity according to the present invention.
as §2

[4] = test system: Enterococcus faecalis, ampicillin-sensitive and benzylpenicillin-resistant strain; assay: as above; conditions: 60 minutes
Procedure: as §3, §2

[5] = test system: Acinetobacter baumannii, imipenem-sensitive strain with intermediate sensitivity to ceftazidime; assay: MIC by microdilution and/or E-test
Text: as §1, §2

[6] = test system: Acinetobacter baumannii, imipenem- and ceftazidime-resistant strain; assay: MIC by microdilution and/or E-test
Text: as §1, §2

[7] = test system: Escherichia coli, ampicillin- and ceftazidime-resistant strain; assay: MIC by microdilution and/or E-test
Text: as §1, §2

[8] = test system: Escherichia coli, ceftazidime-sensitive strain with intermediate sensitivity to ampicillin; assay: MIC by microdilution and/or E-test
Text: as §1, §2

[9] = test system: Acinetobacter baumannii, imipenem-sensitive strain with intermediate sensitivity to ceftazidime; assay: technique for evaluating cell wall integrity (lysis solution, nucleoid release, fluorescence microscopy); conditions: 60 minutes
Procedure: as §3, §2

[10] = test system: Acinetobacter baumannii, imipenem- and ceftazidime-resistant strain; assay: as above; conditions: 60 minutes
Procedure: as §3, §2

[11] = test system: Escherichia coli, ampicillin- and ceftazidime-resistant strain; assay: as above; conditions: 60 minutes
Procedure: as §3, §2

[12] = test system: Escherichia coli, ceftazidime-sensitive strain with intermediate sensitivity to ampicillin; assay: as above; conditions: 60 minutes
Procedure: as §3, §2

MIC [1]: > 32 µg/mL | MIC [2]: > 32 µg/mL
SMILES: CC1(C)S[C@@H]2[C@H](NC(=O)Cc3ccccc3)C(=O)N2[C@H]1C(=O)O [benzylpenicillin]
background of extracellular DNA fragments [3]: no background | heavily lysed cells [3]: 5% | background of extracellular DNA fragments ([4]; 16 μg/mL): some background | cells not lysed ([4]; 16 μg/mL): 81% | lysed cells with a large halo ([4]; 16 μg/mL): 4.5% | cells lysed with nucleoid with fragmented DNA ([4]; 32 μg/mL): 4% | cells not lysed ([4]; 32 μg/mL): 65% | cells with a large halo ([4]; 32 μg/mL): 4% | cells with a small halo ([4]; 320 μg/mL): 25% | non-lysed cells ([4]; 320 μg/mL): 72.3% | empty faint capsules ([4]; 16, 32 and 320 μg/mL): 0.5-1.5%

MIC [5]: 12 µg/mL (≈ 22 µM) | MIC [6]: > 32 µg/mL | MIC [7]: 32 µg/mL (≈ 58.5 µM) | MIC [8]: 1 µg/mL (≈ 1.83 µM)
SMILES: CC(C)(O/N=C(\C(=O)N[C@@H]1C(=O)N2C(C(=O)[O-])=C(C[n+]3ccccc3)CS[C@H]12)c1csc(N)n1)C(=O)O [ceftazidime]
background of extracellular DNA fragments ([9]; 8 μg/mL): without background | filamentous cells ([9]; 8 μg/mL): 82% | lysed cells with a small halo ([9]; 8 μg/mL): 40% | lysed cells with nucleoid with fragmented DNA ([9]; 8 μg/mL): 1% | filamentous cells ([9]; 12 μg/mL (MIC) and 20 μg/mL): 95% | background of extracellular DNA fragments ([9]; 12 μg/mL (MIC)): subtle background | lysed cells with a large halo ([9]; 12 μg/mL (MIC)): 1.5% | lysed cells with a small halo ([9]; 12 μg/mL (MIC)): 94.5% | non-lysed cells ([9]; 12 μg/mL (MIC)): 4% | lysed cells with a large halo ([9]; 20 μg/mL): 3% | lysed cells with a small halo ([9]; 20 μg/mL): 91.5% | non-lysed cells ([9]; 20 μg/mL): 5.5% | background of extracellular DNA fragments ([9]; 32 μg/mL): more background | elongated cells ([9]; 32 μg/mL): 90% | lysed cells with a large halo ([9]; 32 μg/mL): 6% | lysed cells with a small halo ([9]; 32 μg/mL): 88% | non-lysed cells ([9]; 32 μg/mL): 6% | background of extracellular DNA fragments ([9]; 120 μg/mL): extensive background | filamentous cells ([9]; 120 μg/mL): 91% | lysed cells with a large halo ([9]; 120 μg/mL): 23% | lysed cells with a small halo ([9]; 120 μg/mL): 67% | lysed cells with nucleoid with fragmented DNA ([9]; 120 μg/mL): 36% | non-lysed cells ([9]; 120 μg/mL): 7% | background of extracellular DNA fragments ([10]; 2.560 μg/mL): same background persists | cells lysed with nucleoids with fragmented DNA ([10]; 2.560 μg/mL): 25% | cells not lysed ([10]; 2.560 μg/mL): 5% | cells with a large halo ([10]; 2.560 μg/mL): 63.5% | cells with a small halo ([10]; 2.560 μg/mL): 6.5% | very elongated and filamentous cells ([10]; 8 μg/mL): 22% | background of extracellular DNA fragments ([10]; 256 μg/mL): subtle background | cells not lysed ([10]; 256 μg/mL): 4.7% | cells with a small halo ([10]; 256 μg/mL): 63% | heavily lysed cells ([10]; 256 μg/mL): 32.3% | background of extracellular DNA fragments ([10]; 20 and 32 μg/mL): without background | cells with a large halo ([10]; 20 and 32 μg/mL): 1.5% | cells with a small halo ([10]; 20 and 32 μg/mL): 84.5% | filamentous cells ([10]; subsequent doses (20, 32, 256, 2.560 μg/mL)): 90% | filamentous cells ([11]; 8 μg/mL): 13% | well lysed cells ([11]; 8 μg/mL): 1% | background of extracellular DNA fragments ([11]; 20 μg/mL): without background | filamentous cells ([11]; 20 μg/mL): 99% | non-lysed cells ([11]; 20 μg/mL): 94% | well lysed cells ([11]; 20 μg/mL): 5% | background of extracellular DNA fragments ([11]; 32 μg/mL (MIC)): subtle background | empty capsules ([11]; 32 μg/mL (MIC)): 1% | filamentous cells ([11]; 32 μg/mL (MIC)): 98% | lysed cells with nucleoid with fragmented DNA ([11]; 32 μg/mL (MIC)): 3% | non-lysed cells ([11]; 32 μg/mL (MIC)): 92% | well lysed cells ([11]; 32 μg/mL (MIC)): 4% | background of extracellular DNA fragments ([11]; 320 μg/mL): subtle background | cells lysed with nucleoid with fragmented DNA ([11]; 320 μg/mL): 0.5% | filamentous cells ([11]; 320 μg/mL): 99% | heavily lysed cells ([11]; 320 μg/mL): 3.5% | moderately lysed cells ([11]; 320 μg/mL): 95% | non-lysed cells ([11]; 320 μg/mL): 1% | background of extracellular DNA fragments ([12]; 1 μg/mL (MIC)): some background | filamentous cells ([12]; 1 μg/mL (MIC)): 99% | heavily lysed cells ([12]; 1 μg/mL (MIC)): 97% | background of extracellular DNA fragments ([12]; 8 μg/mL): more background | background of extracellular DNA fragments ([12]; 10 μg/mL): extensive background | empty capsules ([12]; 10 μg/mL): 10.5% | lysed cells with nucleoid with fragmented DNA ([12]; 10 μg/mL): 11% | well lysed cells ([12]; 10 μg/mL): 76.5% | empty capsules ([12]; 20 and 32 μg/mL): 25.3% | lysed cells with nucleoid with fragmented DNA ([12]; 20 and 32 μg/mL): 20% | non-lysed cells ([12]; 20 and 32 μg/mL): 2% | well lysed cells ([12]; 20 and 32 μg/mL): 52.7%
